Experimental data reported in patent US6875746B1, “Anticancer anthraquinones and method of use thereof” (Board of Trustees of Michigan State University, priority 2002, dated 2005).
In brackets after ≈: the same amount, converted by molar mass. Entries after “also recorded” stand apart in the source; their conditions may differ. Read-outs that look alike come from different tables or passages of the source.

How the values were obtained:
[1] = test system: NCI-H460 human large cell carcinoma cells; assay: MTT cell viability assay, NCI-H460; assay type: cell-based; details: at GI50 concentration, 48 hours, FIG. 6
Method: (§1) In this example, compounds 1, 1a, 2, 2a, 3, 4, 6, and 8 were tested for cell toxicity using an 3-[4,5-dimethylthiazol-2-yl]-2,5-diphenyltetrazolium bromide (MTT) cell viability assay. The assay monitors the conversion of MTT to the dye, formazan, by viable cells. The formazan crystals form a precipitate which is dissolved in DMSO and analyzed by spectroscopy. MTT is not converted to formazan by dead cells. Therefore, the amount of dye detected is inversely related to the toxicity of the compound being tested.
(§2) The cancer cells used were HCT 116 (colon carcinoma, human, batch # F-11276), SF-268 (CNS, glioblastoma, human, 0503138), NCI-H460 (lung, large cell carcinoma, human, 503473), and MCF-7 (breast, mammary adenocarcinoma, human, 0501975) were procured from NCI, NIH.
(§3) The cells were grown in RPMI 1640 media supplemented with 10% fetal bovine serum and maintained at 37° C. in a humidified atmosphere of 5% CO2. Cells were seeded in 96 well plates at a density of 2000 cells per well. […] To each well, 200 μL of DMSO was added immediately, shaken for 5 min, and optical density of each well was recorded at 570 nm using Universal Microplate Reader. […]
(§4) The average optical densities of three wells for each sample tested and of DMSO control were calculated. The average optical densities of samples and of DMSO control from the replicates were then calculated. […]

[2] = test system: breast (MCF-7), CNS (SF-268), colon (HCT-116) and lung (NCI-H460) human tumor cell lines; assay: cancer cell growth inhibition assay, statements on the four cell lines together; assay type: cell-based; details: MCF-7, SF-268, HCT-116, NCI-H460
Method: The compounds were tested for their activity against breast, central nervous system (CNS), colon, and lung human tumor cell lines. The breast (MCF-7), CNS(SF-268), and lung (NCI-H460) cultures were purchased from the National Cancer Institute (Bethesda, Md.) while the colon culture (HCT-116) was purchased from the American Type Culture Collection (Arlington, Va.). All cell lines were maintained in a humidified chamber at 37° C. with 5% CO2 in RPMI-1640 medium supplemented with 10% fetal bovine serum, penicillin (1 unit/100 mL), and streptomycin (1 μg/100 mL). All cell lines were sub-cultured according to their individual growth profiles in order to ensure exponential growth throughout the experiments. Breast (10,000 cells/well), CNS (15,000 cells/well), colon (7,500 cells/well), and lung (7,500 cells/well) cancer cells were aliquoted (100 μL) into 96-well plates and allowed to grow for 24 hours before the addition of the test compounds to the media. The compounds were dissolved in DMSO and diluted in sterile media as necessary to obtain the appropriate concentration. […] Test compounds, standards, and DMSO control were incubated for 48 hours, after which the assay was terminated via the addition of cold trichloroacetic acid. The plates were incubated for one hour at 4° C., washed with deionized water (five times), and air-dried. A 100 μL aliquot of 0.4% sulforhodamine B stain in 1% acetic acid was added to each well and the plates were incubated for 30 minutes at room temperature. Following incubation, the wells were rinsed with 1% acetic acid (five times) and the bound stain was dissolved in 100 μL of 10 mM TRIZMA base. The plates were shaken for five minutes on a gyrorotary shaker after which the absorbance of each well was recorded with an automated microplate reader (model EL800, Bio-Tek Instruments, Inc., Winooski, Vt.) at 515 nm. Three independent experiments were performed in triplicate using at least five drug concentrations inclusive of the 50% growth inhibitory concentration. […]

MCF-7 (breast) = assay: cancer cell growth inhibition assay (sulforhodamine B), MCF-7; assay type: cell-based; details: Homo sapiens, MCF7, read-out: GI50 ± SE, MCF-7 (breast)
Method: (§5) The compounds were tested for their activity against breast, central nervous system (CNS), colon, and lung human tumor cell lines. The breast (MCF-7), CNS(SF-268), and lung (NCI-H460) cultures were purchased from the National Cancer Institute (Bethesda, Md.) while the colon culture (HCT-116) was purchased from the American Type Culture Collection (Arlington, Va.). All cell lines were maintained in a humidified chamber at 37° C. with 5% CO2 in RPMI-1640 medium supplemented with 10% fetal bovine serum, penicillin (1 unit/100 mL), and streptomycin (1 μg/100 mL). All cell lines were sub-cultured according to their individual growth profiles in order to ensure exponential growth throughout the experiments. Breast (10,000 cells/well), CNS (15,000 cells/well), colon (7,500 cells/well), and lung (7,500 cells/well) cancer cells were aliquoted (100 μL) into 96-well plates and allowed to grow for 24 hours before the addition of the test compounds to the media. The compounds were dissolved in DMSO and diluted in sterile media as necessary to obtain the appropriate concentration. […] Test compounds, standards, and DMSO control were incubated for 48 hours, after which the assay was terminated via the addition of cold trichloroacetic acid. The plates were incubated for one hour at 4° C., washed with deionized water (five times), and air-dried. A 100 μL aliquot of 0.4% sulforhodamine B stain in 1% acetic acid was added to each well and the plates were incubated for 30 minutes at room temperature. Following incubation, the wells were rinsed with 1% acetic acid (five times) and the bound stain was dissolved in 100 μL of 10 mM TRIZMA base. The plates were shaken for five minutes on a gyrorotary shaker after which the absorbance of each well was recorded with an automated microplate reader (model EL800, Bio-Tek Instruments, Inc., Winooski, Vt.) at 515 nm. Three independent experiments were performed in triplicate using at least five drug concentrations inclusive of the 50% growth inhibitory concentration. Results are expressed as the concentration of compound required to inhibit cellular growth 50% (GI50) ±SE.

NCI-H460 (lung) = assay: cancer cell growth inhibition assay (sulforhodamine B), NCI-H460; assay type: cell-based; details: Homo sapiens, read-out: GI50 ± SE, NCI-H460 (lung)
Method: as §5

HCT-116 (colon) = assay: cancer cell growth inhibition assay (sulforhodamine B), HCT-116; assay type: cell-based; details: Homo sapiens, read-out: GI50 ± SE, HCT-116 (colon)
Method: as §5

SF-268 (CNS) = assay: cancer cell growth inhibition assay (sulforhodamine B), SF-268; assay type: cell-based; details: Homo sapiens, read-out: GI50 ± SE, SF-268 (CNS)
Method: as §5

[3] = test system: HCT 116 human colon carcinoma cells; assay: MTT cell viability assay, HCT 116; assay type: cell-based; details: at GI50 concentration, 48 hours, FIG. 4
Method: as §1, §2, §3, §4

[4] = test system: lung (A-549) tumor cell line; details: Li and McLaughlin, J. Nat. Prod. 52: 660-662 (1989); cited from earlier work
[5] = test system: nasal (KBMRI) tumor cell line; details: Li and McLaughlin, J. Nat. Prod. 52: 660-662 (1989); cited from earlier work
[6] = test system: SF-268 human CNS glioblastoma cells; assay: MTT cell viability assay, SF-268; assay type: cell-based; details: at GI50 concentration, 48 hours, FIG. 5; compared with 8, 4, 6 and mixture 1a and 2a
Method: as §1, §2, §3, §4

[7] = test system: colon (HT-29) tumor cell line; details: Li and McLaughlin, J. Nat. Prod. 52: 660-662 (1989); cited from earlier work
[8] = 48 hours incubation, sulforhodamine B stain
[9] = adriamycin values expressed in μM (footnote a), 48 hours

| GI50 (MCF-7 (breast); [8]) [µg/mL] | GI50 (NCI-H460 (lung); [8]) [µg/mL] | GI50 (HCT-116 (colon); [8]) [µg/mL] | GI50 (SF-268 (CNS); [8]) [µg/mL] | GI50 (MCF-7 (breast); [9]) [µM] | GI50 (NCI-H460 (lung); [9]) [µM] | GI50 (HCT-116 (colon); [9]) [µM] | GI50 (SF-268 (CNS); [9]) [µM] | SMILES | toxicity in MTT assay, NCI H460 (Lung cancer) [1] | activity against all four cancer cell lines (in words) [2] | toxicity in MTT assay, HCT 116 (Colon cancer) [3] | ED50, lung (A-549) [4] [µg/mL] | ED50, nasal (KBMRI) [5] [µg/mL] | toxicity in MTT assay, SF-268 (CNS cancer) [6] | ED50, colon (HT-29) [7] [µg/mL] |
| --- | --- | --- | --- | --- | --- | --- | --- | --- | --- | --- | --- | --- | --- | --- | --- |
| 17.2 ± 0.8 | 15.4 ± 1.7 | 21.1 ± 1.8 | 16.3 ± 1.8 |  |  |  |  | O=C(O)c1cc(O)c2c(c1)C(=O)c1cccc(O)c1C2=O [compound 8, 1,8-dihydroxy-3-carboxy anthraquinone] | lest toxic | moderate activity |  |  |  |  |  |
| 2.8 ± 0.3 | 7.3 ± 0.7 | 5 ± 0.3 | 3.8 ± 0.7 |  |  |  |  | O=C1c2cccc(O)c2C(=O)c2c1cc(CO)c(O)c2O [compound 6, 1,2,8-trihydroxy-3-hydroxymethyl anthraquinone] |  | consistent activity; also recorded: concentrations similar to that of compound 3 |  |  |  |  |  |
| 6.5 ± 1.2 | 6.3 ± 0.8 | 6.3 ± 0.8 | 2.4 ± 1.8 |  |  |  |  | Cc1cc2c(c(O)c1O)C(=O)c1c(O)cccc1C2=O [compound 3, 1,2,8-trihydroxy-3-methyl anthraquinone] |  | consistent activity | higher toxicity than the rest of the anthraquinones | 3.1 (≈ 11.5 µM) | 5.7 (≈ 21.1 µM) | higher toxicity | 2.8 (≈ 10.4 µM) |
|  |  |  |  | 1.7 ± 0.2 | 1.7 ± 0.4 | 2.1 ± 0.6 | 1.9 ± 0.7 | COc1cccc2c1C(=O)c1c(O)c3c(c(O)c1C2=O)C[C@@](O)(C(=O)CO)C[C@@H]3O[C@H]1C[C@H](N)[C@H](O)[C@H](C)O1 [adriamycin, reference compound] |  |  |  |  |  |  |  |
